Source: PubChem BioAssay AID743317 (Broad Institute, 2014)
Records with an inconclusive call do not appear. Active and inactive are the calls of the source.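 How the source made its calls: active means fitted curve reaches 40% activation at or below the top valid dose, and every replicate test is called active; inconclusive means replicate tests disagree, some active and some inactive; inactive means all replicate tests inactive, including activity in the wrong direction.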

biological target: Endoplasmic reticulum aminopeptidase 1 (Homo sapiens) (UniProt Q9NZ08); assay: ERAP1 aminopeptidase activity change, dose response, biochemical, fluorescence, cherry-pick (AID 743317); conditions: ERAP1 enzyme, Leu-AMC fluorescence, 60 min
Sequence (Q9NZ08 whole entry, looked up): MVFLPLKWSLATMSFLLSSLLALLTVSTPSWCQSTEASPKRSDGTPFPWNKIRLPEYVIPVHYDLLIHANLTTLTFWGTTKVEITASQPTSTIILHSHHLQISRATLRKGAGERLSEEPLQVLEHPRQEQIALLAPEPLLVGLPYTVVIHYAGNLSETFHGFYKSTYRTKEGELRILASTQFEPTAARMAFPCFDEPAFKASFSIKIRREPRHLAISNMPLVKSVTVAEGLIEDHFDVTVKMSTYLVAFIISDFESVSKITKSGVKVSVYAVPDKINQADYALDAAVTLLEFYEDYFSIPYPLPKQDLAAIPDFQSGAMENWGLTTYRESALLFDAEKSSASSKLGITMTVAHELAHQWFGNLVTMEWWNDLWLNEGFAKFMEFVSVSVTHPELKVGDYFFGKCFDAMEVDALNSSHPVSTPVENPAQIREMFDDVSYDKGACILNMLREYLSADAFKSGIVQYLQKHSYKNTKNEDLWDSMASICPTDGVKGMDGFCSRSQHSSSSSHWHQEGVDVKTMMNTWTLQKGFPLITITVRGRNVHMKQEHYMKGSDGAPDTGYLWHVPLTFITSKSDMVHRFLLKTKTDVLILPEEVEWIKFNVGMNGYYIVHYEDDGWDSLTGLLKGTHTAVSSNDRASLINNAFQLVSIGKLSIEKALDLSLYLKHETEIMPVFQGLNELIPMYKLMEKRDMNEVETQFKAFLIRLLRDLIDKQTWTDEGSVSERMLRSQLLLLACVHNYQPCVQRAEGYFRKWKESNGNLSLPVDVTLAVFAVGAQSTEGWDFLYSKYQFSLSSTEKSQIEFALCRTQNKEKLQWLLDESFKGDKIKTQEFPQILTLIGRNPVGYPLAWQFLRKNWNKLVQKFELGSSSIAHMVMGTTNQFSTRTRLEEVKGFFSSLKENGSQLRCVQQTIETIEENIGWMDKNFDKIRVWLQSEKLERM

| SMILES | AC40 [µM] |
| --- | --- |
| CCCNC(=O)C[C@H]1CC[C@@H]2[C@H](COC[C@H](O)CN2C(=O)Nc2cccc(Cl)c2)O1 | 3.41 |
| Cc1ccccc1-c1ccc2c(c1)O[C@@H](CN(C)Cc1ccc(C(=O)O)cc1)[C@@H](C)CN([C@@H](C)CO)S2(=O)=O | 1.24 |
| COc1ccc(C(=O)O)cc1S(=O)(=O)Nc1cc(C(F)(F)F)ccc1N1CCCCC1 | 0.246 |
| CCCN(C)C[C@@H]1OCCCC[C@@H](C)Oc2ccc(NS(=O)(=O)c3ccc(C)cc3)cc2C(=O)N([C@H](C)CO)C[C@@H]1C | 1.42 |
| Cc1c(O)ccc2c(CN3CCN(Cc4ccccc4)CC3)cc(=O)oc12 | 4.1 |
| COc1ccc(CN(C)C[C@@H]2OCCCC[C@@H](C)Oc3ccc(NS(=O)(=O)c4cccs4)cc3C(=O)N([C@@H](C)CO)C[C@H]2C)cc1 | 0.577 |
| Cc1noc(C)c1S(=O)(=O)Nc1ccc2c(c1)C(=O)N([C@H](C)CO)C[C@@H](C)[C@@H](CN(C)CC1CCCCC1)OCCCC[C@@H](C)O2 | 5.46 |
| C[C@H]1CN([C@@H](C)CO)C(=O)c2cccc(NC(=O)Nc3ccc(F)cc3)c2O[C@@H]1CN(C)C(=O)Nc1ccc2c(c1)OCO2 | 5.56 |
| N#Cc1c(N)n(CCNC(=O)c2ccccc2)c2nc3ccccc3nc12 | 10 |
| Cc1noc(C)c1S(=O)(=O)N(C)C[C@@H]1OCCCC[C@@H](C)Oc2ccc(NS(=O)(=O)c3cccs3)cc2C(=O)N([C@@H](C)CO)C[C@@H]1C | < 0.08 |
| C[C@@H]1CCCCO[C@@H](CN(C)C(=O)CCC(F)(F)F)[C@@H](C)CN([C@@H](C)CO)C(=O)c2cc(NS(=O)(=O)c3ccccc3)ccc2O1 | 1.73 |
| CCCNC(=O)C[C@@H]1CC[C@@H]2[C@H](COC[C@H](O)CN2C(=O)Nc2cccc(Cl)c2)O1 | 6.77 |

same assay, conditions: ERAP1 enzyme, Leu-AMC fluorescence, 60 min; at 5.6 µM (top of the series)

| SMILES | activity increase (activation) |
| --- | --- |
| O=c1ccc2cc(OC3O[C@H](CO)[C@@H](O)[C@H](O)[C@H]3O)c(O)cc2o1 (stereo partly specified) | -95.4% (inactive) |

same assay, conditions: ERAP1 enzyme, Leu-AMC fluorescence, 60 min; at 10 µM (top of the series)

| SMILES | activity increase (activation) |
| --- | --- |
| CCN1[C@H](C(=O)Nc2nccs2)[C@@H](CO)[C@@H]2Cn3c(ccc(/C=C/c4ccccc4)c3=O)[C@@H]21 | -13.4% (inactive) |

same assay, conditions: ERAP1 enzyme, Leu-AMC fluorescence, 60 min; at 11 µM (top of the series)

| SMILES | activity increase (activation) |
| --- | --- |
| COCCCn1c(C(=O)N2CCOCC2)cc2c(=O)n3ccccc3nc21 | -46.9% (inactive) |
| Cc1c(O)ccc2cc(S(=O)(=O)c3ccccc3)c(=O)oc12 | -94% (inactive) |
| CCCc1cc(=O)oc2c(CN(CC)CC)c(O)c(Cl)cc12 | -58.6% (inactive) |
| O=S(=O)(c1ccc(N2CCC(c3ccc(Cl)cc3)=N2)cc1)N(CCO)CCO | -40.9% (inactive) |
| CCN(CCCl)c1cc(CN(C)C)cc(NC(=O)c2ccc(C(=O)Nc3cc(CN(C)C)cc(N(CC)CCCl)c3)cc2)c1 | -76% (inactive) |
| CC1CCCC(C)N1CCCNC(=O)c1cc2c(s1)-c1ccccc1OC2 (stereo unspecified) | -45.6% (inactive) |
| CCCNC(=O)N(C)C[C@@H]1Oc2ncc(-c3ccncc3)cc2C(=O)N([C@H](C)CO)C[C@@H]1C | -31.8% (inactive) |
